Data from patent US20260347347A1, “2-AZA-AND 2-OXABICYCLO[2.1.1]HEXANE DERIVATIVES AS FACTOR XIIA ENZYME INHIBITORS” (KALVISTA PHARMACEUTICALS LIMITED, priority 2022, published 2026).

What follows are compounds tested against T1, Human Factor XIIa (Homo sapiens, UniProt P00748) (assay: Determination of FXIIa inhibition (in vitro IC50 assay, fluorogenic substrate H-DPro-Phe-Arg-AFC)). Details: human Factor XIIa; fluorogenic substrate H-DPro-Phe-Arg-AFC at Km concentration; 5 min, 25 °C; class symbols; read-out: Human FXIIa IC50.
T1 construct: purchased Enzyme Research Laboratories
T1 sequence (P00748 373-615 limits assumed): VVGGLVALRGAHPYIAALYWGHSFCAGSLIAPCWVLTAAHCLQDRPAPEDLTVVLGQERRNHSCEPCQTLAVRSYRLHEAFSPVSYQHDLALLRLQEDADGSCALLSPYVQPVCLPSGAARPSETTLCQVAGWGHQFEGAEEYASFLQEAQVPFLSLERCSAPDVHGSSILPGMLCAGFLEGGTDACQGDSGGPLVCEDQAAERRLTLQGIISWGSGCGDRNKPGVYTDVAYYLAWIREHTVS
T1 sequence (P00748 20-372 partner limits assumed): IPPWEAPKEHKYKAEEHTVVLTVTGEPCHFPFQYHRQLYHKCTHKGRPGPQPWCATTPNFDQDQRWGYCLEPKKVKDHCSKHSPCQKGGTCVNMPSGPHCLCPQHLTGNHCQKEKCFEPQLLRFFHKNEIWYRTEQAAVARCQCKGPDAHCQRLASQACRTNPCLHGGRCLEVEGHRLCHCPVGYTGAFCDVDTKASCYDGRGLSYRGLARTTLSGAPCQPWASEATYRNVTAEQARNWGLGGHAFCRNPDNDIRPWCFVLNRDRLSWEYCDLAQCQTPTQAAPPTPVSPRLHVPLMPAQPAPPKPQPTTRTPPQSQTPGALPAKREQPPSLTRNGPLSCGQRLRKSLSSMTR
Format: biochemical
Summary of the method: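 Human FXIIa incubated at 25 °C with compound and H-DPro-Phe-Arg-AFC at its Km concentration. Linear fluorescence increase monitored over 5 min, expressed as % of uninhibited activity; IC50 is concentration giving 50% inhibition.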
An IC50 of 10 to 100 nM was found for `Cc1cc(OCC23CN(C(=O)N4CCCC5(C4)CC5(F)F)C(CNc4cccc5c(N)nccc45)(C2)C3)cc(=O)n1C` (stereo not shown) [Example 87, 4-((1-(((1-aminoisoquinolin-5-yl)amino)methyl)-2-(1,1-difluoro-5-azaspiro[2.5]octane-5-carbonyl)-2-azabicyclo[2.1.1]hexan-4-yl)methoxy)-1,6-dimethylpyridin-2(1H)-one] in this work. An IC50 of 1 to 10 nM was found for `Nc1nccc2c(NCC34CC(COc5cc6n(c(=O)c5)CCC6)(CN3C(=O)NC3(c5ccccc5)CC3)C4)cccc12` [Example 59, 1-(((1-Aminoisoquinolin-5-yl)amino)methyl)-4-(((5-oxo-1,2,3,5-tetrahydroindolizin-7-yl)oxy)methyl)-N-(1-phenylcyclopropyl)-2-azabicyclo[2.1.1]hexane-2-carboxamide] in this work. An IC50 of 10 to 100 nM was found for `Cc1cc(OCC23CN(C(=O)N(C)[C@H]4CCOC4)C(CNc4cccc5c(N)nccc45)(C2)C3)cc(=O)n1C` [Example 41, (S)-1-(((1-aminoisoquinolin-5-yl)amino)methyl)-4-(((1,6-dimethyl-2-oxo-1,2-dihydropyridin-4-yl)oxy)methyl)-N-methyl-N-(tetrahydrofuran-3-yl)-2-azabicyclo[2.1.1]hexane-2-carboxamide] in this work. An IC50 of 10 to 100 nM was found for `Cc1cc(OCC23CN(C(=O)N(C)C[C@@H]4CCOC4)C(CNc4cccc5c(N)nccc45)(C2)C3)cc(=O)n1C` [Example 47, (S)-1-(((1-aminoisoquinolin-5-yl)amino)methyl)-4-(((1,6-dimethyl-2-oxo-1,2-dihydropyridin-4-yl)oxy)methyl)-N-methyl-N-((tetrahydrofuran-3-yl)methyl)-2-azabicyclo[2.1.1]hexane-2-carboxamide] in this work. An IC50 of 10 to 100 nM was found for `CC(=O)NC(C)C(=O)N1CC2(COc3cc(C)n(C)c(=O)c3)CC1(CNc1cccc3c(N)nccc13)C2` (stereo not shown) [Example 29, N-(1-(1-(((1-Aminoisoquinolin-5-yl)amino)methyl)-4-(((1,6-dimethyl-2-oxo-1,2-dihydropyridin-4-yl)oxy)methyl)-2-azabicyclo[2.1.1]hexan-2-yl)-1-oxopropan-2-yl)acetamide] in this work. An IC50 of 10 to 100 nM was found for `Cc1cc(OCC23CN(c4ccc(C5CC5)nn4)C(CNc4cccc5c(N)nccc45)(C2)C3)cc(=O)n1C` [Example 95, 4-((1-(((1-Aminoisoquinolin-5-yl)amino)methyl)-2-(6-cyclopropylpyridazin-3-yl)-2-azabicyclo[2.1.1]hexan-4-yl)methoxy)-1,6-dimethylpyridin-2(1H)-one] in this work. An IC50 of 10 to 100 nM was found for `Cn1ccc(OCC23CN(C(=O)NC4(C)CCOCC4)C(CNc4cccc5c(N)nccc45)(C2)C3)cc1=O` [Example 78, 1-(((1-aminoisoquinolin-5-yl)amino)methyl)-4-(((1-methyl-2-oxo-1,2-dihydropyridin-4-yl)oxy)methyl)-N-(4-methyltetrahydro-2H-pyran-4-yl)-2-azabicyclo[2.1.1]hexane-2-carboxamide] in this work. An IC50 of 1 to 10 nM was found for `Cn1ccc(OCC23CN(C(=O)Cc4ccc5c(c4)CCCO5)C(CNc4cccc5c(N)nccc45)(C2)C3)cc1=O` [Example 15, 4-((1-(((1-Aminoisoquinolin-5-yl)amino)methyl)-2-(2-(chroman-6-yl)acetyl)-2-azabicyclo[2.1.1]hexan-4-yl)methoxy)-1-methylpyridin-2(1H)-one] in this work. An IC50 of 10 to 100 nM was found for `C[C@@H](c1ccccc1)N(C)C(=O)N1CC2(COc3ccn(C)c(=O)c3)CC1(CNc1cccc3c(N)nccc13)C2` [Example 42, (S)-1-(((1-aminoisoquinolin-5-yl)amino)methyl)-N-methyl-4-(((1-methyl-2-oxo-1,2-dihydropyridin-4-yl)oxy)methyl)-N-(1-phenylethyl)-2-azabicyclo[2.1.1]hexane-2-carboxamide] in this work. An IC50 of 10 to 100 nM was found for `Cn1ccc(OCC23CN(C(=O)NC4(C)COC4)C(CNc4cccc5c(N)nccc45)(C2)C3)cc1=O` [Example 79, 1-(((1-aminoisoquinolin-5-yl)amino)methyl)-4-(((1-methyl-2-oxo-1,2-dihydropyridin-4-yl)oxy)methyl)-N-(3-methyloxetan-3-yl)-2-azabicyclo[2.1.1]hexane-2-carboxamide] in this work. An IC50 of 10 to 100 nM was found for `CO[C@H]1CC[C@H](CC(=O)N2CC3(COc4cc(C)n(C)c(=O)c4)CC2(CNc2cccc4c(N)nccc24)C3)CC1` (single isomer, unassigned) [Example 24, 4-((1-(((1-aminoisoquinolin-5-yl)amino)methyl)-2-(2-((1r,4r)-4-methoxycyclohexyl)acetyl)-2-azabicyclo[2.1.1]hexan-4-yl)methoxy)-1,6-dimethylpyridin-2(1H)-one] in this work. An IC50 of 10 to 100 nM was found for `Cc1cc(OCC23CN(C(=O)CC45CCC(CC4)CC5)C(CNc4cccc5c(N)nccc45)(C2)C3)cc(=O)n1C` [Example 21, 4-((1-(((1-aminoisoquinolin-5-yl)amino)methyl)-2-(2-(bicyclo[2.2.2]octan-1-yl)acetyl)-2-azabicyclo[2.1.1]hexan-4-yl)methoxy)-1,6-dimethylpyridin-2(1H)-one] in this work. An IC50 of 1 to 10 nM was found for `Cn1ccc(OCC23CN(C(=O)N4CC[C@@H](c5ccccc5)C4)C(CNc4cccc5c(N)nccc45)(C2)C3)cc1=O` [Example 44, (S)-4-((1-(((1-aminoisoquinolin-5-yl)amino)methyl)-2-(3-phenylpyrrolidine-1-carbonyl)-2-azabicyclo[2.1.1]hexan-4-yl)methoxy)-1-methylpyridin-2(1H)-one] in this work. An IC50 of 10 to 100 nM was found for `CC(C(=O)N1CC2(COc3ccn(C)c(=O)c3)CC1(CNc1cccc3c(N)nccc13)C2)c1ccc2c(c1)CCO2` (stereo not shown) [Example 27, 4-((1-(((1-aminoisoquinolin-5-yl)amino)methyl)-2-(2-(2,3-dihydrobenzofuran-5-yl)propanoyl)-2-azabicyclo[2.1.1]hexan-4-yl)methoxy)-1-methylpyridin-2(1H)-one] in this work. An IC50 of 100 to 300 nM was found for `Cn1ccc(OCC23CN(C(=O)N4CCCc5ccccc54)C(CNc4cccc5c(N)nccc45)(C2)C3)cc1=O` [Example 36, 4-((1-(((1-aminoisoquinolin-5-yl)amino)methyl)-2-(1,2,3,4-tetrahydroquinoline-1-carbonyl)-2-azabicyclo[2.1.1]hexan-4-yl)methoxy)-1-methylpyridin-2(1H)-one] in this work. An IC50 of 100 to 300 nM was found for `COc1ccc2c(c1)CCCN2C(=O)N1CC2(COc3ccn(C)c(=O)c3)CC1(CNc1cccc3c(N)nccc13)C2` [Example 39, 4-((1-(((1-aminoisoquinolin-5-yl)amino)methyl)-2-(6-methoxy-1,2,3,4-tetrahydroquinoline-1-carbonyl)-2-azabicyclo[2.1.1]hexan-4-yl)methoxy)-1-methylpyridin-2(1H)-one] in this work. An IC50 of 10 to 100 nM was found for `Cn1ccc(OCC23CN(C(N)=O)C(CNc4cccc5c(N)nccc45)(C2)C3)cc1=O` [Example 63, 1-(((1-Aminoisoquinolin-5-yl)amino)methyl)-4-(((1-methyl-2-oxo-1,2-dihydropyridin-4-yl)oxy)methyl)-2-azabicyclo[2.1.1]hexane-2-carboxamide] in this work. An IC50 of 10 to 100 nM was found for `Cn1ccc(OCC23CN(C(=O)C[C@H]4CCOC4)C(CNc4cccc5c(N)nccc45)(C2)C3)cc1=O` [Example 10, (R)-4-((1-(((1-aminoisoquinolin-5-yl)amino)methyl)-2-(2-(tetrahydrofuran-3-yl)acetyl)-2-azabicyclo[2.1.1]hexan-4-yl)methoxy)-1-methylpyridin-2(1H)-one] in this work. An IC50 of 1 to 10 nM was found for `Cc1cc(OCC23CN(C(=O)N(C)C4COc5ccccc54)C(CNc4cccc5c(N)nccc45)(C2)C3)cc(=O)n1C` (stereo not shown) [Example 90, 1-(((1-Aminoisoquinolin-5-yl)amino)methyl)-N-(2,3-dihydrobenzofuran-3-yl)-4-(((1,6-dimethyl-2-oxo-1,2-dihydropyridin-4-yl)oxy)methyl)-N-methyl-2-azabicyclo[2.1.1]hexane-2-carboxamide] in this work. An IC50 of 10 to 100 nM was found for `Cn1ccc(OCC23CN(C(=O)NC4CCC(S(=O)(=O)C5CCCCC5)CC4)C(CNc4cccc5c(N)nccc45)(C2)C3)cc1=O` (stereo not shown) [Example 74, 1-(((1-aminoisoquinolin-5-yl)amino)methyl)-N-(4-(cyclohexylsulfonyl)cyclohexyl)-4-(((1-methyl-2-oxo-1,2-dihydropyridin-4-yl)oxy)methyl)-2-azabicyclo[2.1.1]hexane-2-carboxamide] in this work. An IC50 of 10 to 100 nM was found for `Cc1cc(OCC23CN(C(=O)N4CCC5(C4)CC5(F)F)C(CNc4cccc5c(N)nccc45)(C2)C3)cc(=O)n1C` (stereo not shown) [Example 89, 4-((1-(((1-aminoisoquinolin-5-yl)amino)methyl)-2-(1,1-difluoro-5-azaspiro[2.4]heptane-5-carbonyl)-2-azabicyclo[2.1.1]hexan-4-yl)methoxy)-1,6-dimethylpyridin-2(1H)-one] in this work. An IC50 of 10 to 100 nM was found for `Cn1ccc(OCC23CN(C(=O)CC4CCOCC4)C(CNc4cccc5c(N)nccc45)(C2)C3)cc1=O` [Example 9, 4-((1-(((1-aminoisoquinolin-5-yl)amino)methyl)-2-(2-(tetrahydro-2H-pyran-4-yl)acetyl)-2-azabicyclo[2.1.1]hexan-4-yl)methoxy)-1-methylpyridin-2(1H)-one] in this work.
